Experimental data reported in patent US8557527B2 (HistoRx, Inc., priority 2008, dated 2013).

Legend:
GBM = test: Clinical outcome of RT+Gefitinib (RTOG 0211, Array 19) versus RT alone (historical, Array 8) patients stratified by AQUA biomarker level
[1] = test system: Newly Diagnosed Glioblastoma (GBM); settings: Gefitinib+Radiation vs historical controls; cited from earlier work
[2] = test system: chronic myelogenous leukemia and gastrointestinal stromal tumors; settings: patients with chronic myelogenous leukemia and gastrointestinal stromal tumors; cited from earlier work

| Structure (SMILES) | overall survival, RTOG 0211 versus historical controls (RT alone) (GBM; patients with elevated ratio of cytoplasmic to nuclear pAKT) | overall survival times, Gefitinib+RT versus RT only (GBM; patients with intermediate-to-high levels of Src expression) | clinical outcome, RT+Gefitinib versus RT alone (GBM; patients with lower levels of PTEN expression, p=0.08) | survival compared to historical controls [1] | efficacy as therapy [2] | toxicity as therapy [2] |
| --- | --- | --- | --- | --- | --- | --- |
| COc1cc2ncnc(Nc3ccc(F)c(Cl)c3)c2cc1OCCCN1CCOCC1 [Gefitinib] | improved overall survival | significantly worse overall survival times | trend towards improved outcome | survival was not significantly improved |  |  |
| Cc1ccc(NC(=O)c2ccc(CN3CCN(C)CC3)cc2)cc1Nc1nccc(-c2cccnc2)n1 [STI-571] |  |  |  |  | highly effective | non-toxic |
